# From patent publication US9408873B2, “Pharmaceutical composition comprising stem cells treated with NOD2 agonist or culture thereof for prevention and treatment of immune disorders and inflammatory diseases” (KANG STEM BIOTECH CO., LTD., priority 2010, dated 2016)
# Entries after “also recorded” stand apart in the source; their conditions may differ.
# What was measured:
# hUCB-MSCs [1] = test: IL-8 production in hUCB-MSCs after stimulation by receptor agonists (ELISA); type: cell-based, human; conditions: 24 hours with agonist
# Method: After conforming the expression of the receptors of interest in hUCB-MSC in Example 2-1, the functionality of the receptors investigated by monitoring IL-8 production after stimulation by agonists. For this experiment, hUCB-MSCs were cultured at a density of 2×10^4 cells/well in KSFM medium supplemented with 2% FBS in a 96-well plate. After 24 hours of culturing, the cells were treated with the following agonists corresponding to each of the receptors, i.e., Pam3CSK4 (TLR2 agonist, Pam3), LPS (TLR4 agonist), Tri-DAP (NOD1 agonist, T-DAP), and MDP (NOD2 agonist). Then the samples were incubated for additional 24 hours. The supernatant of each culture was collected, centrifuged, and filtered through a 0.2 μm filter. Then, concentrations of IL-8 and PGE2 were measured using an ELISA kit (R&D Systems, Minneapolis, Minn., USA). Ultrapure LPS (E. coli O111:B4), Pam3CSK4, and Tri-DAP were purchased from Invivogen (San Diego, Calif., USA), MDP [Ac-(6-O-stearoyl)-muramyl-Ala-D-Glu-NH2; muramyl dipeptide] was purchased from Bachem (Bubendorf, Switzerland). Recombinant human Interferon-γ was purchased from Peprotech (Rockyhill, N.J., USA).
# human MNC = test: Human MNC proliferation under direct cell to cell contact with hUCB-MSC; type: cell-based; conditions: direct cell to cell interaction
# From the text: In the present experiment, the inventors investigated whether TLR and NLR agonists enhance the suppressive activity of hUCB-MSC against human […] proliferation. Based on the study that identified the importance of a direct interact ion between MSCs and lymphocytes in inhibition of lymphocyte proliferation by MSCs, the present inventors investigated whether MDP has an effect on the suppressive ability of hUCB-MSCs against MNC proliferation under the conditions where two cell groups are in contact with each other.
# mouse splenocytes [2] = test: Xenogeneic mouse splenocyte proliferation in hUCB-MSC culture medium; type: cell-based
# hUCB-MSCs [3] = test: PGE2 secretion by hUCB-MSCs (ELISA); type: cell-based, human
# Method: The hUCB-MSCs (2×10^4 cells/well) were cultured in MSC medium supplemented with 2% FBS in a 96-well plate. After 24 hrs of culturing, the cells were treated with 1 μg/mL Pam3CSK4 (TLR2 agonist), 1 μg/mL LPS (TLR4 agonist), 10 μg/mL Tri-DAP (NOD1 agonist) or 10 μg/mL MDP (NOD2 agonist) and cultured for additional 24 hours, then the culture supernatant of each sample was collected. After centrifugation, the culture supernatants were filtered through a 0.2 μm filter. Then, PGE2 concentration was measured using an ELISA kit (R&D Systems, Minneapolis, Minn., USA) following the manufacture's protocol.
# To determine the sustainment time of the effects of MDP treatment, the amount of PEG2 produced was monitored after 1 day-long treatment of hUCB-MSCs with MDP. In this experiment, MDP was removed after 1 day of culturing by removing the culture medium and washing the cells with phosphate buffered saline (PBS) 5 times. Then the amount of PEG2 produced was measured. Meanwhile, cells were treated with MDP by the same method described in Example 5-1, and PGE2 concentration was measured. Also, in order to determine the effects of NOD2, Rip2 and COX-2 on PGE2 expression, the cells were treated with each of the control group of Example 3-3 i.e. siRNA (siCTL), siNOD2, siRip2 and COX-2 inhibitor called indomethacin (Sigma (St. Louis, Mo., USA).
# (§1) Soluble factors such as hepatocyte growth factor, TGF-β1, indoleamine 2,3 dioxygenase-1 (IDO-1), nitric oxide (NO), and prostaglandin E2 (PGE2) are the strong candidates for regulating immunosuppression by MSC. In order to determine whether TLR and NLR agonists induce the production of soluble factors including NO, PGE2 and TGF-β1 in hUCB-MSCs, the cells were cultured with Pam3CSK4, LPS, Tri-DAP, and MDP for 24 hours, and culture supernatants were collected. Secretion of the soluble factors was monitored by the method described in Examples 5-1 and 5-2.
# COX-2 = COX-2 expression in hUCB-MSCs (immunoblot); type: cell-based, human; conditions: 24 hours with agonist
# Method: Cells were treated with 1 μg/mL Pam3CSK4 (TLR2 agonist), 1 μg/mL LPS (TLR4 agonist), 10 μg/mL Tri-DAP (NOD1 agonist) or 10 μg/mL MDP (NOD2 agonist) and cultured for 24 hours. Then, the collected cells were lysed using 1% Nonidet-P40 buffer containing 2 mM dithiothreitol and protease cocktail (Roche, US). The cell lysates were resolved by 12% SDS-PAGE, and transferred onto a nitrocellulose membrane. Then, immunostaining was performed using primary antibodies (COX-2, GAPDH (Santa Cruz biotechnology, Santa Cruz, Calif., USA)). Thereafter, immunostaining was performed using secondary antibodies, and proteins were detected using an enhanced chemiluminescence (ECL) reagent (Intron Biotechnology).
# To investigate a correlation between COX-2 expression and the function of NOD2 and Rip2, cells were first treated with MDP and further treated with siNOD2 and siRip2. Then the COX-2 expression level was examined. Protein expression level was measured by using the method described in Example 5-2, and the method for siRNA treatment was the same as described in Example 3-3.
# hUCB-MSCs [4] = test: TGF-β1 production by hUCB-MSCs; type: cell-based, human; conditions: 24 hours with agonist
# Method: as §1
# hMNC [5] = test: IL-10 production by MNC cultured with UCB-MSC supernatant and ConA (ELISA); type: cell-based, human
# Method: In order to determine the production level of IL-10, hUCB-MSCs (1×10^5 cells/well) were cultured in MSC medium supplemented with 2% FBS in a 24 well plate. About 24 hours later, the cells were treated with siNOD2 or indomethacin (Indo), and further cultured for 24 hours. Then the cells were washed five times, and fresh RPMI was added. After 5 days of culturing, UCB-MSC supernatant (UMS) was obtained. MNCs (1×10^6/well) were cultured with UMS and ConA (Sigma (St. Louis Mo., USA)). After 3 days of culturing, cell supernatant was collected, centrifuged, and filtered through a 0.2 μm filter. Then, IL-10 concentration was measured using an ELISA kit (R&D Systems, Minneapolis, Minn., USA).
# PGE2 produced in bone marrow stromal cells is known to take an important role in IL-10 production by host macrophages (Nemeth, K., A. et al., Bone marrow stromal cells attenuate sepsis via prostaglandin E(2)-dependent reprogramming of host macrophages to increase their interleukin-10 production. Nat Med 15:42-49, 2009). MDP induces PGE2 production in hUCB-MSCs, and thus the present inventors examined whether IL-10 production in hMNCs is increased in the presence of MDP-UCM. The experiment was performed by the same method described in Example 5-6.
# hMNC [6] = test: hMNC proliferation cultured with PGE2; type: cell-based, human; conditions: PGE2 at a concentration of 10 ng/mL or higher
# Method: (§2) In order to investigate the effect of PGE2 on mononuclear cell (MNC) proliferation, hMNC and mouse splenocytes were cultured with various concentrations of PGE2. The experiment was performed by the same method described in Example 5-5.
# mouse splenocytes [7] = test: Mouse splenocyte proliferation cultured with PGE2; type: cell-based; conditions: PGE2 at a concentration of 10 ng/mL or higher
# Method: as §2
# MNC = MNC proliferation in culture medium/supernatant of agonist-treated hUCB-MSC; type: cell-based, human; conditions: for MNC proliferation in culture medium of agonist-treated hUCB-MSC: hUCB-MSC #618, MNC cultured 3 days
# Method: Soluble factors are also known to mediate immunosuppression by MSC. So the present inventors examined whether secretory factors generated by UCB-MSCs have an effect on human MNC proliferation. Culture medium (CM) was prepared, and hUCB-MSCs were co-cultured with the agonist for 24 hours. After washing, the cells were cultured fresh for additional […]. Then, a control group containing culture medium (CM) and sample of hUCB-MSCs treated with agonist (#613) were prepared, and MNCs were cultured in CM containing hUCB-MSCs for 3 days.
# To determine whether MDP enhances the immunosuppressive activity of in UCB-MSC, the following experiment was performed. A control group containing culture medium (CM) of hUCB-MSC was prepared and the agonist-treated hUCB-MSCs were collected on the 5th day of culturing. Then, MNC was co-cultured in CM of hUCB-MSC for 3 days more, and after culturing, the level of MNC proliferation was monitored.
# Additionally, to investigate the correlation among NOD2, Rip2 and MDP in MNC inhibition, the following experiment was conducted using siRNAs of […] and Rip2 and a control group (siCTL). When the cell density reached 60%, siRNAs were transfected into the cells. The siRIPK2 (M-003602-02) which is the siRNA of receptor-interacting serine-threonine kinase 2 (RIPK2 or receptor interacting kinase protein 2 (Rip2) which is the adaptor of […] and NOD2 and the type of kinase called RICK or CARDIAK (Bertin et al, 1999; Inohara et al, 1999; Ogura et al, 2001b)), siNOD2 (J-011338-07) which is the siRNA of NOD2, and a non-targeting control (siControl #1, D-001810-01) were purchased from Dharmacon (Chicago, Ill., USA). DharmaFECT1 (Dharmacon) was used as a transfection reagent, and siRNA was transfected at a concentration of 100 nmol/L. About 48 hours later, the medium was replaced with the fresh one, and the cells were treated with 10 μg/mL of MDP (NOD2 agonist) for 24 hours, except for a negative control (culture medium of MNC only) and a positive control (medium added with UCB-MSC supernatant (UMS) without agonist).
# That is, a medium where MNC was cultured alone (i), and a medium added with UCB-MSC supernatant (UMS) without agonist (ii) were prepared as control groups, and a medium treated with MDP and UMS (iii), a medium treated with MDP, UMS, and control siRNA (siCTL) (iv), a medium treated with MDP, UMS and siNOD2 (v), and a medium treated with MDP, UMS, and siRip2 (vi) were prepared. Thereafter, MNC proliferation was measured by optical density at the wavelength of 450 nm.
# In order to investigate the role of PGE2 in inhibition of MNC by hUCB-MSC, MNC proliferation was examined when treated with the MSC supernatant, MDP-treated MSC supernatant, and MDP and indomethacin (COX-2 inhibitor)-treated MSC supernatant. The experiment was performed by the same method described in Example 3.
# hMNCs = test: Treg population (CD4, CD25, Foxp3) in hMNCs cultured with UCM, flow cytometry; type: cell-based, human
# Method: Next, the present inventors investigated the effect of UCM on differentiation of hMNC into regulatory T cells (Treg). For this, hMNCs were cultured with UCM for 5 days, and co-expression of CD4, CD25, and Foxp3 in hMNCs was determined by Flow cytometry.
compound,measurement,setting,value
"CCCCCCCCCCCCCCCCCC(=O)OCC1OC(O)C(NC(C)=O)C(OC(C)C(=O)NC(C)C(=O)NC(CCC(=O)O)C(N)=O)C1O [MDP, Ac-(6-O-stearoyl)-muramyl-Ala-D-Glu-NH2]",IL-8 production,hUCB-MSCs [1],increased IL-8 production in hUCB-MSCs in a dose-dependent manner
same,effect of agonist on suppressive activity of hUCB-MSCs against MNC proliferation,human MNC,did not affect the suppressive activity of hUCB-MSCs against MNC proliferation
same,proliferation of xenogeneic mouse splenocytes in UCM,mouse splenocytes [2],this inhibitory effect was enhanced by MDP stimulation
same,PGE2 production level after removal of MDP,"hUCB-MSCs [3]; MDP removed after 1 day, 5th day of culturing",greater than that in the control group
same,PGE2 secretion,"hUCB-MSCs [3]; hUCB-MSCs, 24 hours with agonist (MDP 10 μg/mL)",significantly enhanced PGE2 secretion; also recorded: enhanced only by addition of MDP
same,COX-2 expression,COX-2,enhanced COX-2 expression; also recorded: increased
same,TGF-β1 production,hUCB-MSCs [4],enhanced only by addition of MDP
same,IL-10 production by MNC,hMNC [5]; MNC cultured 3 days with UCB-MSC supernatant and ConA,remarkably increased
"CCCCC[C@H](O)/C=C/[C@H]1[C@H](O)CC(=O)[C@@H]1C/C=C\CCCC(=O)O [PGE2, (5Z, 11(alpha),13E,15S)-11,15-dihydroxy-9-oxo-prosta-5,13-dien-1-oic acid]",proliferation of hMNC,hMNC [6],remarkably inhibited
same,proliferation of mouse splenocytes,mouse splenocytes [7],remarkably inhibited
"C[C@H](N)C(=O)N[C@H](CCC(=O)NC(CCCC(N)C(=O)O)C(=O)O)C(=O)O (stereo partly shown) [Tri-DAP, Tri-diaminopimelic Acid]",IL-8 production,hUCB-MSCs [1],increased IL-8 production in hUCB-MSCs in a dose-dependent manner
same,effect of agonist on suppressive activity of hUCB-MSCs against MNC proliferation,human MNC,did not affect the suppressive activity of hUCB-MSCs against MNC proliferation
same,MNC proliferation in culture medium of agonist-treated hUCB-MSC,MNC,this effect was absent
same,MNC proliferation in culture medium of agonist-treated hUCB-MSC,MNC; listed as T-DAP,only slightly inhibited
COc1ccc2c(c1)c(CC(=O)O)c(C)n2C(=O)c1ccc(Cl)cc1 [indomethacin],effect on the inhibition of MNC proliferation by MDP-treated MSC culture medium (MDP-UCM),MNC; co-treatment or siRNA of hUCB-MSC,MNC proliferation rate similar to that of the negative control group; also recorded: counteracted
same,effect on MDP-enhanced PGE2 production,hUCB-MSCs [3]; hUCB-MSCs / MDP-UCM,MDP-enhanced PGE2 production was inhibited
same,effect on MDP-increased IL-10 production by MNC,hMNC [5],IL-10 production was suppressed; also recorded: reversed
same,effect on the increase in Treg population by MDP-UCM,hMNCs,reversed
Pam3CSK4,IL-8 production,hUCB-MSCs [1],increased IL-8 production in hUCB-MSCs in a dose-dependent manner
same,effect of agonist on suppressive activity of hUCB-MSCs against MNC proliferation,human MNC,did not affect the suppressive activity of hUCB-MSCs against MNC proliferation
same,MNC proliferation in culture medium of agonist-treated hUCB-MSC,MNC,this effect was absent
same,MNC proliferation in culture medium of agonist-treated hUCB-MSC,MNC; listed as Pam3,only slightly inhibited
